Measured values reported in patent US20090239884A1, “Methods of Treating Inflammation” (priority 2006, published 2009).
pIC50: −log10 of the molar value.

Legend:
[1] = system: EAE in C57BL/6 mice; test: experimental autoimmune encephalomyelitis (EAE), clinical score; assay type: in vivo, mouse
Procedure: Induction of active EAE and clinical evaluation. Active EAE is induced in 8-12 weeks old mice by immunization with MOG p35-55 in complete Freund's adjuvant. 200 μg of MOG p35-55 peptide and 800 μg of killed mycobacterium tuberculosis are emulsified in CFA and injected subcutaneously by means of four injections over the flanks. In addition, 200 ng of pertussis toxin dissolved in 200 μl PBS is injected i.p. at the day of immunization and again the day after. Mice are monitored daily for clinical signs of EAE, and scored according to the following criteria: 0, no signs of disease; 0.5, partial tail weakness; 1, limp tail; 1.5, limp tail and slight slowing of righting; 2, partial hind limb weakness and/or marked slowing of righting; 2.5, dragging of hind limb(s) without complete paralysis; 3, complete paralysis of at least one hind limb; 4, severe forelimb weakness; 5, moribund or dead. Daily clinical scores are calculated and presented as the average (mean) and standard error of the mean (SEM) of all individual disease scores in each group. Statistical comparison of disease severity by clinical score is accomplished by calculating the mean clinical score for each mouse from day of disease onset to day 60 and performing a non-parametric Wilcoxon analysis.
[…] 8. DP is the only inhibitor known to block PDE 8 in addition to other PDEs. […]

[2] = system: bEnd.3 endothelial cells; test: qRT-PCR gene expression in TNF-α activated bEnd.3 endothelial cells; assay type: cell-based, mouse; conditions: DP 100 μM
Procedure: Quantitative real-time RT-PCR analysis. 10 ng cDNA, or 2 μl cDNA for LCM studies, was amplified by qRT-PCR in a 25 μl reaction using SYBR Green PCR Master Mix (Applied Biosystems, Foster City, Calif.). Primers were designed using Primer Express software v3.0 and primer efficiency verified by slope analysis to be 100%±2.5%. qRT-PCR was performed using an ABI 7500 fast system and data analyzed using the Δ^ct method (SDS software v3.0). Amplicon sizes were approximately 100 bp.
Cell treatment. Confluent bEnd.3 monolayers were incubated with 200 ng/ml TNF-α (Peprotech, Rocky Hill, N.J.) at 37° c. for 2 hours. […] Christoff Zitt and Armin Hatzelmann (Altana Pharma, Konstanz, Germany). Con A-activated splenocytes or CD4^+CD25^− T cells activated with plate-bound anti-CD3 mAb were treated with the same reagents for 20, 45, or 90 minutes.
In FIG. 23A, bEnd.3 endothelial cells were activated for 2 hours with TNF-α (200 ng/ml) and (A) DP (100 μM) or vehicle (0.1% DMSO) for the final 45 minutes. PDE gene expression was then analyzed by qRT-PCR and the data presented as the mean+SEM of 3 independent experiments assayed in triplicate (*p<0.05, **p<0.001; unpaired t-test).
The data are shown as a mean±SEM percentage of vehicle control and represent 3 independent experiments assayed in triplicate (*p<0.05, * *p<0.001; unpaired t-test).

[3] = system: PDE8A; conditions: expressed forms of PDE8A; read-out: reported IC50s, PDE8A; cited from earlier work
[4] = system: PDE8; conditions: read-out: Potency (IC50) PDE8; cited from earlier work
[5] = system: peripheral blood mononuclear cells; conditions: cited from earlier work
[6] = system: T1, PDE8A; conditions: expressed forms of full length cDNAs for PDE8; cited from earlier work
T1 construct: other: expressed forms of full length cDNAs for PDE8

[7] = 45 minutes, dibutryl cAMP 500 μM, 8-bromo-cAMP 500 μM

SMILES	development of clinical signs of EAE ([1]; 2 mg DP per mouse per day, day 0 until day 23)	clinical severity of EAE compared with vehicle ([1]; treatment after onset (mean score grade 1), 2×1 mg/mouse/day i.p.)	reduction of ICAM-1 mRNA expression ([2]; 45 minutes, dibutryl cAMP 500 μM) [%]	increase of claudin-5 gene expression [2, 7] [%]	reduction of CXCL12 gene expression [2, 7] [%]	reduction of VCAM-1 gene expression [2, 7] [%]	PDE4B expression in bEnd.3 cells ([2]; final 45 minutes of TNF-α)	expression of other PDE genes, including PDE8A, in bEnd.3 cells ([2]; final 45 minutes of TNF-α)	pIC50 [3]	pIC50 [4]	lipopolysaccharide-stimulated release of TNF-α [5]	inhibition of expressed forms of PDE8 [6]
OCCN(CCO)c1nc(N2CCCCC2)c2nc(N(CCO)CCO)nc(N3CCCCC3)c2n1 [Dipyridamole, 2,2′,2″,2′″-(4,8-di(piperidin-1-yl)pyrimido[5,4-d]pyrimidine-2,6-diyl)bis(azanetriyl)tetraethanol]	profoundly suppressed	significantly decreased	65	111	69	60	compensatory increase	not significantly altered	5.05 to 5.40	5.05 to 5.40	inhibit	–
CC(C)Cn1c(=O)n(C)c(=O)c2[nH]cnc21 [IBMX, 3-isobutyl-1-methylxanthine]	–	–	–	–	–	–	–	–	–	–	–	resistant
